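These data come from cells grown in 96-well plates and exposed to compound for 48 hours at five concentrations. At the GI50, growth is halved.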 Activity calls are given as the source filed them. No stated cut-off is given here; in the data, active = GI50 up to about 1.1 µM and inactive = higher.
Tests used:
Test in all cases: DTP human tumour cell line panel, 48 h
ACHN = system: ACHN
CCRF-CEM = system: CCRF-CEM
HCT-116 = system: HCT-116
HCT-15 = system: HCT-15
HOP-92 = system: HOP-92
M14 = system: M14
MOLT-4 = system: MOLT-4
NCI-H226 = system: NCI-H226
OVCAR-5 = system: OVCAR-5
OVCAR-8 = system: OVCAR-8
RPMI-8226 = system: RPMI-8226
SF-539 = system: SF-539
SR = system: SR
SW-620 = system: SW-620
U-251 = system: U-251
NCI-H522 = system: NCI-H522
SNB-19 = system: SNB-19

Row | SMILES | GI50 (ACHN) | GI50 (CCRF-CEM) | GI50 (HCT-116) | GI50 (HCT-15) | GI50 (HOP-92) | GI50 (M14) | GI50 (MOLT-4) | GI50 (NCI-H226) | GI50 (OVCAR-5) | GI50 (OVCAR-8) | GI50 (RPMI-8226) | GI50 (SF-539) | GI50 (SR) | GI50 (SW-620) | GI50 (U-251) | GI50 (NCI-H522) | GI50 (SNB-19)
1 | COc1ccc(OC)c(/C(C)=N/NC(N)=S)c1 | > 100 µM (inactive) | > 100 µM (inactive) | > 100 µM (inactive) | > 100 µM | > 100 µM (inactive) | > 100 µM (inactive) | 74.8 µM (inactive) | > 100 µM (inactive) | > 100 µM (inactive) | > 100 µM (inactive) | > 100 µM (inactive) | > 100 µM (inactive) | > 100 µM (inactive) | > 100 µM (inactive) | > 100 µM (inactive) |  | 
2 | CCOC(=O)c1c(-c2[nH]c(C(=O)OCc3ccccc3)c(C)c2C(=O)OCC)[nH]c(C(=O)OCc2ccccc2)c1C | 58.2 µM (inactive) |  | > 100 µM (inactive) | > 100 µM | 55.2 µM (inactive) | > 100 µM (inactive) | > 100 µM (inactive) | > 100 µM (inactive) | > 100 µM (inactive) | > 100 µM (inactive) | > 100 µM (inactive) | 48.4 µM (inactive) | > 100 µM (inactive) | > 100 µM (inactive) | 36 µM (inactive) | > 100 µM (inactive) | 
3 | CC(C)C1CC[C@@H](C)C[C@@]1(O)CC(N)=O (some centres undefined) | > 100 µM (inactive) |  | > 100 µM (inactive) | > 100 µM | < 0.01 µM (active) | > 100 µM (inactive) | > 100 µM (inactive) | > 100 µM (inactive) | > 100 µM (inactive) | > 100 µM (inactive) | > 100 µM (inactive) | > 100 µM (inactive) | > 100 µM (inactive) | > 100 µM (inactive) | > 100 µM (inactive) | > 100 µM (inactive) | > 100 µM (inactive)
4 | N=C(N)NS(=O)(=O)c1ccc(Nc2c3ccccc3nc3c(C(=O)Nc4ccc(S(N)(=O)=O)cc4)ccc(Cl)c23)cc1 | > 100 µM (inactive) |  | > 100 µM (inactive) | > 100 µM | > 100 µM (inactive) | > 100 µM (inactive) | > 100 µM (inactive) | > 100 µM (inactive) | > 100 µM (inactive) | 58.2 µM (inactive) | > 100 µM (inactive) | > 100 µM (inactive) | > 100 µM (inactive) | > 100 µM (inactive) | > 100 µM (inactive) | > 100 µM (inactive) | > 100 µM (inactive)
5 | C=C1C(=O)OC2C1CC[C@H](C)C13OC(=O)CC1[C@@]23C (some centres undefined) | > 100 µM (inactive) | > 100 µM (inactive) | > 100 µM (inactive) |  | > 100 µM (inactive) |  | > 100 µM (inactive) | > 100 µM (inactive) | > 100 µM (inactive) | > 100 µM (inactive) | > 100 µM (inactive) | > 100 µM (inactive) | > 100 µM (inactive) | > 100 µM (inactive) | > 100 µM (inactive) | 48.3 µM (inactive) | > 100 µM (inactive)
6 | CC1C2C=C(O)C(=O)C(C2=O)C1c1ccccc1 (centres undefined) | > 100 µM (inactive) | > 100 µM (inactive) |  | > 100 µM | > 100 µM (inactive) | > 100 µM (inactive) | > 100 µM (inactive) | 45.1 µM (inactive) | > 100 µM (inactive) | > 100 µM (inactive) | > 100 µM (inactive) | > 100 µM (inactive) | > 100 µM (inactive) | > 100 µM (inactive) | > 100 µM (inactive) | > 100 µM (inactive) | > 100 µM (inactive)
7 | CC1=C(C(=O)Nc2ccccc2)C(c2cccc3ccccc23)C(C(=O)Nc2ccccc2)=C(C)N1 | 24.2 µM (inactive) | 26.7 µM (inactive) | 15.4 µM (inactive) | 16.2 µM | 24 µM (inactive) | 17.7 µM (inactive) | 0.767 µM (active) | 1.74 µM (inactive) | 23 µM (inactive) | 16.7 µM (inactive) |  | 20.4 µM (inactive) | 3.11 µM (inactive) | 22.4 µM (inactive) | 16.5 µM (inactive) | 16 µM (inactive) | 16.4 µM (inactive)

— ChEMBL document CHEMBL1201862, “PubChem BioAssay data set” (2004)
